For this experiment, the target named is T1, human adenosine A2b receptor (Homo sapiens, UniProt P29275).
T1 construct: expressed in transfected cells; host or cells: CHO-K1 (Chinese Hamster Ovary) with CRE-luciferase reporter
T1 sequence (P29275 1-332): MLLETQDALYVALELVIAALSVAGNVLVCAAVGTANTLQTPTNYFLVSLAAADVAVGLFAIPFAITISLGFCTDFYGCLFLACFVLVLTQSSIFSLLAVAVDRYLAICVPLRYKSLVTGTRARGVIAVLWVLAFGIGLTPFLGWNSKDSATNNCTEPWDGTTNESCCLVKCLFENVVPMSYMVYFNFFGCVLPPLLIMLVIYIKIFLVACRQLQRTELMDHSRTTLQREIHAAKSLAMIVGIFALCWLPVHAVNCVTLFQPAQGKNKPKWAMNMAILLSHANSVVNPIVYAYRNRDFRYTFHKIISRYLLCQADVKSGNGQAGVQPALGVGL
Kind of experiment: Cellular reporter gene (CRE-luciferase) A2b receptor antagonist assay in recombinant CHO-K1 cells stimulated with NECA. It is filed as cell-based. Conditions: recombinant CHO-K1 cell line, co-incubation with EC50 concentration of NECA, 3 hours, in some cases means, rounded to two significant digits. The protocol:
B-1. Cellular In Vitro Tests for Determining A2b Receptor Activity and Adenosine Receptor Selectivity
The identification of selective antagonists of the human adenosine A2b receptor and the quantification of the efficacy and selectivity of the compounds according to the invention was carried out with the aid of recombinant cell lines for the human adenosine receptors A1, A2a, A2b and A3. These cell lines were originally derived from an ovarepithelial cell of the hamster (Chinese Hamster Ovary, CHO-K1, American Type Culture Collection, Manassas, Va. 20108, USA). In addition to the respective recombinantly expressed adenosine receptor for testing the efficacy at the A1, A2a and A2b receptors, the cell lines contain a reporter gene construct where expression of the firefly (Photinus pyralis) luciferase is under the control of a promoter which can be activated via intracellular signal cascades by stimulation of the receptors with the (not subtype-selective) adenosine receptor agonist NECA (5′-N-ethylcarboxamidoadenosine) [S. J. Hill, J. G. Baker, S. Rhees, Curr. Opin. Pharmacol. 1, 526-532 (2001)].
In the case of the A2a and A2b cell lines, this is a minimal promoter having a plurality of cAMP-responsive elements (CRE). Stimulation of the Gs coupled A2b or A2a receptors by NECA ultimately leads, via formation of cAMP, to CRE-dependent induction of luciferase expression, which is detected 3 hours after the start of the incubation with NECA using a detection solution in a suitable luminometer. For testing the antagonists, initially, in a pre-experiment, the concentration of NECA which, at the test day in question, results in half-maximum stimulation of luciferase expression (EC50 concentration) is determined By joint incubation of this EC50 concentration of NECA with the substances to be tested, it is possible to determine their antagonistic activity.
In general terms: In a reporter assay the amount or activity of a reporter protein is the signal.

Broadly, the IC50 is the concentration needed to halve the response being measured. With `Cc1cccc(CCn2c(=O)c3c(C)c(C(=O)N4CCC(O)CC4)sc3n(CCC(F)(F)F)c2=O)c1` [Example 11, 6-[(4-Hydroxypiperidin-1-yl)carbonyl]-5-methyl-3-[2-(3-methylphenyl)ethyl]-1-(3,3,3-trifluoropropyl)thieno[2,3-d]pyrimidine-2,4(1H,3H)-dione], the IC50 stood at 0.51 µM.
For `Cc1c(C(=O)N2CCC(O)CC2)sc2c1c(=O)n(CCc1ccc(F)cc1)c(=O)n2CCC(F)(F)F` [Example 12, 3-[2-(4-Fluorophenyl)ethyl]-6-[(4-hydroxypiperidin-1-yl)carbonyl]-5-methyl-1-(3,3,3-trifluoropropyl)thieno[2,3-d]pyrimidine-2,4(1H,3H)-dione] the value was 0.065 µM; for `Cc1c(C(=O)N2CCC(O)CC2)sc2c1c(=O)n(CCc1ccc(Cl)cc1)c(=O)n2CCC(F)(F)F` [Example 13, 3-[2-(4-Chlorophenyl)ethyl]-6-[(4-hydroxypiperidin-1-yl)carbonyl]-5-methyl-1-(3,3,3-trifluoropropyl)thieno [2,3-d]pyrimidine-2,4(1H,3H)-dione], 0.1 µM.
On to `COc1ccc(CCn2c(=O)c3c(C)c(C(=O)N4CCC(O)CC4)sc3n(CCC(F)(F)F)c2=O)cc1` [Example 14, 6-[(4-Hydroxypiperidin-1-yl)carbonyl]-3-[2-(4-methoxyphenyl)ethyl]-5-methyl-1-(3,3,3-trifluoropropyl)thieno [2,3-d]pyrimidine-2,4(1H,3H)-dione], for which the IC50 is 0.19 µM.
For `Cc1c(C(=O)N2CCC(O)CC2)sc2c1c(=O)n(CCc1cccnc1)c(=O)n2CCC(F)(F)F` [Example 15] the value was 0.032 µM; for `Cc1c(C(=O)N2CCC(O)CC2)sc2c1c(=O)n(CCc1cnccn1)c(=O)n2CCC(F)(F)F` [Example 17, 6-[(4-Hydroxypiperidin-1-yl)carbonyl]-5-methyl-3-[2-(pyrazin-2-yl)ethyl]-1-(3,3,3-trifluoropropyl)thieno[2,3-d]pyrimidine-2,4(1H,3H)-dione], 0.35 µM; for `CCn1c(=O)c2c(C)c(C(=O)N3CCC(O)CC3)sc2n(CCC=C(F)F)c1=O` [Example 19, 1-(4,4-Difluorobut-3-en-1-yl)-3-ethyl-6-[(4-hydroxypiperidin-1-yl)carbonyl]-5-methylthieno[2,3-d]pyrimidine-2,4(1H,3H)-dione], 0.092 µM.
For `CCn1c(=O)c2c(C)c(C(=O)N3CCC(O)CC3)sc2n(CCOC)c1=O` [Example 20, 3-Ethyl-6-[(4-hydroxypiperidin-1-yl)carbonyl]-1-(2-methoxyethyl)-5-methylthieno[2,3-d]pyrimidine-2,4(1H,3H)-dione] the value was 0.34 µM.
`CCn1c(=O)c2c(C)c(C(=O)N3CCC(O)(C(F)(F)F)CC3)sc2n(CCC(F)(F)F)c1=O` [Example 22, 3-Ethyl-6-{[4-hydroxy-4-(trifluoromethyl)piperidin-1-yl]carbonyl}-5-methyl-1-(3,3,3-trifluoropropyl)thieno[2,3-d]pyrimidine-2,4(1H,3H)-dione]: the IC50 came out at 0.067 µM.
In the case of `CCn1c(=O)c2c(C)c(C(=O)N3[C@@H]4CC[C@H]3CC(O)C4)sc2n(CCC(F)(F)F)c1=O` (stereo partly drawn) [Example 23, 3-Ethyl-6-[(3-hydroxy-8-azabicyclo[3.2.1]oct-8-yl)carbonyl]-5-methyl-1-(3,3,3-trifluoropropyl)thieno[2,3-d]pyrimidine-2,4(1H,3H)-dione], the IC50 was 0.043 µM.
Take `CCn1c(=O)c2c(C(F)(F)F)c(C(=O)N3CCC(O)CC3)sc2n(CCC(F)(F)F)c1=O` [Example 25, 3-Ethyl-6-[(4-hydroxypiperidin-1-yl)carbonyl]-5-(trifluoromethyl)-1-(3,3,3-trifluoropropyl)thieno[2,3-d]pyrimidine-2,4(1H,3H)-dione]: the 50% inhibitory concentration (IC50) was 0.049 µM.
For `Cc1c(C(=O)N2CCNC(=O)C2)sc2c1c(=O)n(CCc1ccccc1)c(=O)n2CCC=C(F)F` [Example 27, 1-(4,4-Difluorobut-3-en-1-yl)-5-methyl-6-[(3-oxopiperazin-1-yl)carbonyl]-3-(2-phenylethyl)thieno[2,3-d]pyrimidine-2,4(1H,3H)-dione], the IC50 amounted to 0.041 µM.
For the compound `COCCn1c(=O)n(CCc2ccccc2)c(=O)c2c(C)c(C(=O)N3CCNC(=O)C3)sc21` [Example 28, 1-(2-Methoxyethyl)-5-methyl-6-[(3-oxopiperazin-1-yl)carbonyl]-3-(2-phenylethyl)thieno[2,3-d]pyrimidine-2,4(1H,3H)-dione], the IC50 stood at 0.15 µM.
Next, `Cc1c(C(=O)N2CCNC(=O)C2)sc2c1c(=O)n(CCc1ccccc1F)c(=O)n2CCC=C(F)F` [Example 30, 1-(4,4-Difluorobut-3-en-1-yl)-3-[2-(2-fluorophenyl)ethyl]-5-methyl-6-[(3-oxopiperazin-1-yl)carbonyl]thieno[2,3-d]pyrimidine-2,4(1H,3H)-dione]: 0.053 µM; `Cc1c(C(=O)N2CCNC(=O)C2)sc2c1c(=O)n(CCc1cccnc1)c(=O)n2CCC=C(F)F` [Example 34, 1-(4,4-Difluorobut-3-en-1-yl)-5-methyl-6-[(3-oxopiperazin-1-yl)carbonyl]-3-[2-(pyridin-3-yl)ethyl]thieno[2,3-d]pyrimidine-2,4(1H,3H)-dione]: 0.12 µM; `CCn1c(=O)c2c(C)c(C(=O)N3CCNC(=O)C3)sc2n(CCC=C(F)F)c1=O` [Example 36, 1-(4,4-Difluorobut-3-en-1-yl)-3-ethyl-5-methyl-6-[(3-oxopiperazin-1-yl)carbonyl]thieno[2,3-d]pyrimidine-2,4(1H,3H)-dione]: 0.2 µM.
For the compound `CCn1c(=O)c2c(C)c(C(=O)N3CCNC(=O)C3)sc2n(CCOC)c1=O` [Example 37, 3-Ethyl-1-(2-methoxyethyl)-5-methyl-6-[(3-oxopiperazin-1-yl)carbonyl]thieno[2,3-d]pyrimidine-2,4(1H,3H)-dione], the half-inhibitory concentration (IC50) came to 0.34 µM.
Next, `CCn1c(=O)c2c(C)c(C(=O)N3CCNC(=O)C3(C)C)sc2n(CCC(F)(F)F)c1=O` [Example 38, 6-[(2,2-Dimethyl-3-oxopiperazin-1-yl)carbonyl]-3-ethyl-5-methyl-1-(3,3,3-trifluoropropyl)thieno[2,3-d]pyrimidine-2,4(1H,3H)-dione]: 0.14 µM; `CCn1c(=O)c2c(C(F)(F)F)c(C(=O)N3CCNC(=O)C3)sc2n(CCC(F)(F)F)c1=O` [Example 42, 3-Ethyl-6-[(3-oxopiperazin-1-yl)carbonyl]-5-(trifluoromethyl)-1-(3,3,3-trifluoropropyl)thieno[2,3-d]pyrimidine-2,4(1H,3H)-dione]: 0.088 µM.
For `Cc1c(C(=O)N2CCC(O)CC2)sc2c1c(=O)n(CC1(c3ccccc3)CC1)c(=O)n2CCC(F)(F)F` [Example 49, 6-[(4-Hydroxypiperidin-1-yl)carbonyl]-5-methyl-3-[(1-phenylcyclopropyl)methyl]-1-(3,3,3-trifluoropropyl)thieno[2,3-d]pyrimidine-2,4(1H,3H)-dione] the value was 0.068 µM; for `Cc1c(C(=O)N2CCC(O)CC2)sc2c1c(=O)n(CC(C)(C)c1ccccc1)c(=O)n2CCC(F)(F)F` [Example 50, 6-[(4-Hydroxypiperidin-1-yl)carbonyl]-5-methyl-3-(2-methyl-2-phenylpropyl)-1-(3,3,3-trifluoropropyl)thieno[2,3-d]pyrimidine-2,4(1H,3H)-dione], 0.15 µM; for `Cc1c(C(=O)N2CCC(O)CC2)sc2c1c(=O)n(CC(F)(F)c1ccccc1)c(=O)n2CCC(F)(F)F` [Example 51, 3-(2,2-Difluoro-2-phenylethyl)-6-[(4-hydroxypiperidin-1-yl)carbonyl]-5-methyl-1-(3,3,3-trifluoropropyl)thieno[2,3-d]pyrimidine-2,4(1H,3H)-dione], 0.016 µM.
Take `COCCn1c(=O)n(CC(F)(F)c2ccccc2)c(=O)c2c(C)c(C(=O)N3CCC(O)CC3)sc21` [Example 52, 3-(2,2-Difluoro-2-phenylethyl)-6-[(4-hydroxypiperidin-1-yl)carbonyl]-1-(2-methoxyethyl)-5-methylthieno[2,3-d]pyrimidine-2,4(1H,3H)-dione]: the IC50 stood at 0.21 µM.
Next, `Cc1c(C(=O)N2CCC(O)CC2)sc2c1c(=O)n(CCc1ccccn1)c(=O)n2CCC(F)(F)F` [Example 53, 6-[(4-Hydroxypiperidin-1-yl)carbonyl]-5-methyl-3-[2-(pyridin-2-yl)ethyl]-1-(3,3,3-trifluoropropyl)thieno[2,3-d]pyrimidine-2,4(1H,3H)-dione]: 0.17 µM.

Source of the values: patent publication US9604996B2 (Bayer Pharma Aktiengesellschaft, priority 2013, dated 2017).
